Data reported in US20260356851A1, “TRICYCLIC COMPOUNDS AND USES THEREOF” (HUTCHMED LIMITED, priority 2023, published 2026).

Legend:
Assay type in all cases: cell-based
[1] = target: T1, pERK1/2 (Thr202/Tyr204), NCI-1H358 (KRAS G12C) (Homo sapiens, UniProt P01116, G12C); test: Assay of intracellular pERK1/2 (Thr202/Tyr204) phosphorylation in NCI-H358 cells (KRAS G12C); settings: pERK1/2, 2 days, read-out: NCI-H358 (KRAS G12C) IC50
T1 construct: pERK1/2 HTRF read-out
Description: (§1) Example 2: Assay of intracellular pERK1/2 (Thr202/Tyr204)phosphorylation
(§2) 1. Reagents and materials: • pERK1/2 (Thr202/Tyr2O4) HIRE kit, Cisbio, Cat #64ERKPEH; • OptiPlate™-384-well plate, PerkinElmer, Cat #6007299; • 96-well plate, Coming, Cat #353072; • Instrument: EnVision2104, PerkinElmer; • Cell lines: NCI-1H358 (KRAS G12C), ATCC, CRL-5807; PANC-1 (KRAS G121D), ATCC, CRL-1469; NCI-1H441 (KRAS G12V), ATCC, HTB-174.
(§3) 2. Preparation of Reaction Solutions
(§4) • A test compound was dissolved in DMSO, diluted to 200.0 μM and further diluted 3-fold to prepare a series of test compounds at concentrations of 66.7, 22.2, 7.4, 2.5, 0.82, 0.27, 0.09 μM etc. Then 10 μL of the compound at different dilution concentrations was added to 190 μL of a DMEM medium to prepare a 10× test compound; • 1× cell lysis buffer: 4× cell lysis stock solution (provided by the kit) was diluted 4-fold with deionized water, and then 10% 100× blocking stock solution (provided by the kit) was added thereto. • pERK1/2 detection solution (prepared just before use): the pERK1/2 d2 antibody (provided by the kit) and pERK1/2 Cryptate antibody (provided by the kit) were diluted with the detection solution (provided by the kit) at a ratio of 1:1:38.
(§5) • Cells were inoculated into a 96-well plate (100 μL/well) at a density of 10000-12000/well. No cell was inoculated into a negative control well, and only the cell medium was added at 100 μL/well. The plate was placed in a cell incubator at 5% CO2 and 37° C. overnight. • 10 μL of the 10× test compound was added to the 100 μL cell culture 96-well plate; both the positive control well (that is, the control hole without chemical compound treatment) and the negative control well were charged with 10 μL of a 5% DMSO culture solution; and the plate was cultured in a cell incubator at 5% CO2 and 37° C. for 2 days. • The medium in the 96-well plate was removed; 50 μL of the 1× cell lysis buffer was added to each of the wells; the plate was placed in a microplate shaker; and lysis under shaking was carried out at 900 rpm at room temperature for 1 hour. • 16 μL of the lysis buffer in the 96-well plate was taken and transferred to a 384-well plate, followed by centrifugation at 1000 rpm for 30 s; then 4 μL of pERK1/2 detection solution was added to each well, followed by centrifugation at 1000 rpm for 30 s; and the 384-well plate was sealed with a sealing membrane and incubated at 25° C. on a low-speed shaker at 100 rpm in the dark for 2 hours. • The fluorescence value (RFU) of each well was detected on EnVision2104, with an emission wavelength 1 being 665 nm and an emission wavelength 2 being 615 nm.
(§6) Fluorescence ratio=fluorescence value665 nm/fluorescence value615 nm
(§7) Inhibition rate (%)=100−((fluorescence ratio of compound well−fluorescence ratio of negative control well)/(fluorescence ratio of positive control well−fluorescence ratio of negative control well))×100
(§8) wherein: • the fluorescence ratio of compound well refers to the fluorescence ratio of the well containing the test compounds; • the fluorescence ratio of negative control well refers to the fluorescence ratio of the cell-free control well; • the fluorescence ratio of positive control well refers to the fluorescence ratio of the cell well treated with 0.5% DMSO.
(§9) IC50 value: obtained by calculation using XL-Fit 5.0 software.

[2] = target: T2, pERK1/2 (Thr202/Tyr204), PANC-1 (KRAS G121D) (Homo sapiens, UniProt P01116, G12D); test: Assay of intracellular pERK1/2 (Thr202/Tyr204) phosphorylation in PANC-1 cells (KRAS G12D); settings: pERK1/2, 2 days, read-out: PANC-1 (KRAS G12D) IC50
T2 construct: pERK1/2 HTRF read-out
Description: as §1, §2, §3, §4, §5, §6, §7, §8, §9

[3] = target: T3, pERK1/2 (Thr202/Tyr204), NCI-1H441 (KRAS G12V) (Homo sapiens, UniProt P01116, G12V); test: Assay of intracellular pERK1/2 (Thr202/Tyr204) phosphorylation in NCI-H441 cells (KRAS G12V); settings: pERK1/2, 2 days, read-out: NCI-H441 (KRAS G12V) IC50
T3 construct: pERK1/2 HTRF read-out
Description: as §1, §2, §3, §4, §5, §6, §7, §8, §9

T2 sequence (P01116 1-188 isoform P01116-2 G12D): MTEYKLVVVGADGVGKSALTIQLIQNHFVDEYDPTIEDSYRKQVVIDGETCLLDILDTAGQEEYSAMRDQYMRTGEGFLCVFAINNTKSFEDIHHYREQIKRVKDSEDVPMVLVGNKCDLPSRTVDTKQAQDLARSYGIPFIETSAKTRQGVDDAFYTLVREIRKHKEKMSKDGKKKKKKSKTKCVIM
T3 sequence (P01116 1-188 isoform P01116-2 G12V): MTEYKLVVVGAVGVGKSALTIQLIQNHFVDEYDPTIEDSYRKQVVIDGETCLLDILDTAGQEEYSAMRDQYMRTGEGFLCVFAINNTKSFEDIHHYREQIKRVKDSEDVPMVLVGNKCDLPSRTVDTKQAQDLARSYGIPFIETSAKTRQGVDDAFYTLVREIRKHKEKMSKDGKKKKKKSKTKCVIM
T1 sequence (P01116 1-188 isoform P01116-2 G12C): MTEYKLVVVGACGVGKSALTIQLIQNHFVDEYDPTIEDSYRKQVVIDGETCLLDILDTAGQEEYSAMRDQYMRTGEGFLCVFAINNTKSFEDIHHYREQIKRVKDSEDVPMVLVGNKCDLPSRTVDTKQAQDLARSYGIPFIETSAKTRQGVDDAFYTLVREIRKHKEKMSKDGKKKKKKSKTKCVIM

Row | IC50 [1] | IC50 [2] | IC50 [3] | SMILES
1 | 0.7 nM | 21 nM | 2 nM | CC(c1cccnc1N)N1CCOc2nc(-c3cc(N)ccc3C(F)(F)F)c(F)c3nc(OC[C@@]45CCCN4C[C@H](F)C5)nc1c23 (single isomer, unassigned) [Compound 54, 3-((R or S)-1-(5-(5-amino-2-(trifluoromethyl)phenyl)-4-fluoro-2-(((2R,7aS)-2-fluorotetrahydro-1H-pyrrolizin-7a(5H)-yl)methoxy)-8,9-dihydro-10H-7-oxa-1,3,6,10-tetraazacyclohepta[de]naphthalen-10-yl)ethyl)pyridin-2-amine]
2 | 322 nM | > 1000 nM | 511 nM | CC(c1cccnc1N)N1CCOc2nc(-c3cc(O)cc(Cl)c3C3CC3)c(F)c3nc(OC[C@@H]4CC(F)(F)CN4C)nc1c23 (single isomer, unassigned) [Compound 55, 3-(10-((R or S)-1-(2-aminopyridin-3-yl)ethyl)-2-(((S)-4,4-difluoro-1-methylpyrrolidin-2-yl)methoxy)-4-fluoro-9,10-dihydro-8H-7-oxa-1,3,6,10-tetraazacyclohepta[de]naphthalen-5-yl)-5-chloro-4-cyclopropylphenol]
3 | 3 nM | 134 nM | 5 nM | CC(c1cccnc1N)N1CCOc2nc(-c3cc(O)cc(Cl)c3C3CC3)c(F)c3nc(OC[C@@H]4CC(F)(F)CN4C)nc1c23 (single isomer, unassigned) [Compound 56, 3-(10-((R or S)-1-(2-aminopyridin-3-yl)ethyl)-2-(((S)-4,4-difluoro-1-methylpyrrolidin-2-yl)methoxy)-4-fluoro-9,10-dihydro-8H-7-oxa-1,3,6,10-tetraazacyclohepta[de]naphthalen-5-yl)-5-chloro-4-cyclopropylphenol]
4 | 15 nM | 746 nM | 32 nM | CC(c1cccnc1N)N1CCOc2nc(-c3cc(O)cc(Cl)c3C(F)(F)F)c(F)c3nc(OC[C@@]45CCCN4C[C@H](F)C5)nc1c23 (single isomer, unassigned) [Compound 57, 3-(10-((R or S)-1-(2-aminopyridin-3-yl)ethyl)-4-fluoro-2-(((2R,7aS)-2-fluorotetrahydro-1H-pyrrolizin-7a(5H)-yl)methoxy)-9,10-dihydro-8H-7-oxa-1,3,6,10-tetraazacyclohepta[de]naphthalen-5-yl)-5-chloro-4-(trifluoromethyl)phenol]
5 | 3 nM | 147 nM | 5 nM | CC(c1cccnc1N)N1CCOc2nc(-c3cc(O)cc(Cl)c3C(F)(F)F)c(F)c3nc(OC[C@@]45CCCN4C[C@H](F)C5)nc1c23 (single isomer, unassigned) [Compound 58, 3-(10-((R or S)-1-(2-aminopyridin-3-yl)ethyl)-4-fluoro-2-(((2R,7aS)-2-fluorotetrahydro-1H-pyrrolizin-7a(5H)-yl)methoxy)-9,10-dihydro-8H-7-oxa-1,3,6,10-tetraazacyclohepta[de]naphthalen-5-yl)-5-chloro-4-(trifluoromethyl)phenol]
6 | 0.2 nM | 0.6 nM | 0.2 nM | Cc1cc(N)cc(-c2nc3c4c(nc(OC[C@@]56CCCN5C[C@H](F)C6)nc4c2F)N(C(C)c2cccnc2N)CCO3)c1C(F)(F)F (single isomer, unassigned) [Compound 61, 3-((R or S)-1-(5-(5-amino-3-methyl-2-(trifluoromethyl)phenyl)-4-fluoro-2-(((2R,7aS)-2-fluorotetrahydro-1H-pyrrolizin-7a(5H)-yl)methoxy)-8,9-dihydro-10H-7-oxa-1,3,6,10-tetraazacyclohepta[de]naphthalen-10-yl)ethyl)pyridin-2-amine]
7 | 8 nM | 55 nM | 9 nM | Cc1cc(N)cc(-c2nc3c4c(nc(OC[C@@]56CCCN5C[C@H](F)C6)nc4c2F)N(C(C)c2cccnc2N)CCO3)c1C(F)(F)F (single isomer, unassigned) [Compound 62, 3-((R or S)-1-(5-(5-amino-3-methyl-2-(trifluoromethyl)phenyl)-4-fluoro-2-(((2R,7aS)-2-fluorotetrahydro-1H-pyrrolizin-7a(5H)-yl)methoxy)-8,9-dihydro-10H-7-oxa-1,3,6,10-tetraazacyclohepta[de]naphthalen-10-yl)ethyl)pyridin-2-amine]
8 | 0.1 nM | 0.6 nM | 0.4 nM | CC(c1cccnc1N)N1CCOc2nc(-c3cc(N)cc(Cl)c3C(F)(F)F)c(F)c3nc(OC[C@@]45CCCN4C[C@H](F)C5)nc1c23 (single isomer, unassigned) [Compound 71, 3-((R or S)-1-(5-(5-amino-3-chloro-2-(trifluoromethyl)phenyl)-4-fluoro-2-(((2R,7aS)-2-fluorotetrahydro-1H-pyrrolizin-7a(5H)-yl)methoxy)-8,9-dihydro-10H-7-oxa-1,3,6,10-tetraazacyclohepta[de]naphthalen-10-yl)ethyl)pyridin-2-amine]
9 | 11 nM | 38 nM | 13 nM | CC(c1cccnc1N)N1CCOc2nc(-c3cc(N)cc(Cl)c3C(F)(F)F)c(F)c3nc(OC[C@@]45CCCN4C[C@H](F)C5)nc1c23 (single isomer, unassigned) [Compound 72, 3-((R or S)-1-(5-(5-amino-3-chloro-2-(trifluoromethyl)phenyl)-4-fluoro-2-(((2R,7aS)-2-fluorotetrahydro-1H-pyrrolizin-7a(5H)-yl)methoxy)-8,9-dihydro-10H-7-oxa-1,3,6,10-tetraazacyclohepta[de]naphthalen-10-yl)ethyl)pyridin-2-amine]
10 | 0.2 nM | 4 nM | 0.4 nM | CC(c1cccnc1N)N1CCOc2nc(-c3cc(N)cc(Cl)c3C3CC3)c(F)c3nc(OC[C@@]45CCCN4C[C@H](F)C5)nc1c23 (single isomer, unassigned) [Compound 74, 3-((R or S)-1-(5-(5-amino-3-chloro-2-cyclopropylphenyl)-4-fluoro-2-(((2R,7aS)-2-fluorotetrahydro-1H-pyrrolizin-7a(5H)-yl)methoxy)-8,9-dihydro-10H-7-oxa-1,3,6,10-tetraazacyclohepta[de]naphthalen-10-yl)ethyl)pyridin-2-amine]
11 | 5 nM | 40 nM | 11 nM | CC(c1cccnc1N)N1CCOc2nc(-c3cc(N)cc(Cl)c3C3CC3)c(F)c3nc(OC[C@@]45CCCN4C[C@H](F)C5)nc1c23 (single isomer, unassigned) [Compound 75, 3-((R or S)-1-(5-(5-amino-3-chloro-2-cyclopropylphenyl)-4-fluoro-2-(((2R,7aS)-2-fluorotetrahydro-1H-pyrrolizin-7a(5H)-yl)methoxy)-8,9-dihydro-10H-7-oxa-1,3,6,10-tetraazacyclohepta[de]naphthalen-10-yl)ethyl)pyridin-2-amine]
12 | 0.5 nM | 18 nM | 0.7 nM | Cc1cc(N)cc(-c2nc3c4c(nc(OC[C@@H]5CCCN5C)nc4c2F)N(C(C)c2cccnc2N)CCO3)c1C(F)(F)F (single isomer, unassigned) [Compound 76, 3-((R or S)-1-(5-(5-amino-3-methyl-2-(trifluoromethyl)phenyl)-4-fluoro-2-(((S)-1-methylpyrrolidin-2-yl)methoxy)-8,9-dihydro-10H-7-oxa-1,3,6,10-tetraazacyclohepta[de]naphthalen-10-yl)ethyl)pyridin-2-amine]
